Data published in PMC6018403 (Frontiers in Pharmacology, 2018).
Like-named read-outs stand apart in the source and are kept apart here. Values belong to the compound of their own block, whether it stands above or below them.

Assay: Multi-component pharmacokinetic study of GQD, GQD-GC and single herb extracts in rats (plasma, LC/MS/MS)
Type: in vivo, Sprague-Dawley rats
Details: for bioavailability in the GQD group compared with the Ge-Gen group: rats, oral
Description: Male Sprague-Dawley rats (220–250 g) were used for PK study, and the details were described in Supplemental Data. All procedures were in accordance with the National Institutes of Health Guide for the Care and Use of Laboratory Animals.
For PK study of GQD and its component herbs, rats were randomly divided into six groups (n = 10 for each group) before oral administration.
All blood samples were immediately centrifuged at 6,000 rpm (4°C) for 20 min to obtain plasma. The plasma samples were stored at −80°C.
A Finnigan TSQ Quantum triple quadrupole mass spectrometer was connected to a Surveyor HPLC via ESI interface (ThermoFisher). High purity nitrogen was used as the sheath and auxiliary gas; Ultra-high purity argon was used as the collision gas (1.5 mTorr). Q1 and Q3 quadrupoles were set at unit resolution. […] The column temperature was 40°C. The mobile phase consisted of acetonitrile containing 2% (v/v) methanol (A) and water containing 0.1% (v/v) formic acid (B). […] An aliquot of 5 μL was injected for analysis. UV spectra were obtained by scanning from 200 to 400 nm. The mass spectrometer was operated in the (+)-ESI mode. The optimized parameters were as follows: sheath gas (N2), 50 arb; auxiliary gas (N2), 5 arb; spray voltage, 4.0 kV; capillary temperature, 330°C; collision energy, see Table S1. Analytes were detected in the selected reaction monitoring (SRM) mode. Data were processed by Xcalibur 2.0.7 software (ThermoFisher).
LC/MS/MS calibration and quantitation data were processed with Xcalibur 2.0.7 software (ThermoFisher). The maximal plasma concentrations (Cmax) and their time of occurrence (Tmax) were obtained directly from the measured data. Other pharmacokinetic parameters were calculated by non-compartment or compartment models using WinNonlin® software (v6.1, Pharsight). Unless otherwise stated, results were expressed as the mean ± SD. Statistical significance in differences of the means was determined by Student's t–test, with a significance level of P < 0.05.
Herbal materials and extracts.
The four component herbs, Puerariae Lobatae Radix (Ge-Gen, GG), Scutellariae Radix (Huang-Qin, HQ), Coptidis Rhizoma (Huang-Lian, HL), and Glycyrrhizae Radix et Rhizoma Praeparata cum Melle (Gan-Cao, GC) were purchased from Tianheng Pharmacy. GQD was prepared by decocting the four component herbs […]
pre-extraction of Ge-Gen using 200 mL of water for 0.5 h. The decoctions were combined, filtered, and concentrated in vacuum at 50 °C. GQD-GC was prepared using the same procedure, except that Gan-Cao was removed from the formula. Final concentration of the GQD-GC extract was equivalent to 1.0 g of the crude drugs per mL. For single herb extracts, the herbs were decocted in 8-fold volume of water for […]
Final concentrations of the extracts were 1.0 g/mL for Ge-Gen, and 0.5 g/mL for Huang-Qin, Huang-Lian and […]
For pharmacokinetic study, Male Sprague-Dawley rats (220-250 g) were obtained from the Laboratory Animal Center of Peking University Health Science Center. The […]
The rats had free access to tap water and soy-free custom diet (Ke’ao Xieli Co.). All procedures were in accordance with the National Institutes of Health Guide for the Care and Use of Laboratory Animals […]
Experimental details for the PK study
1. Preparation of internal standard solution, calibration standard solutions, and quality control solutions […]
internal standard solution. Reference standard compounds were dissolved in the internal standard solution to prepare individual stock solutions (1.0 mg/mL). These […]
each compound. The standard solution was then serially diluted to obtain calibration […]
Quality control stock solutions were prepared at three concentration levels as high QC (HQC), middle QC (MQC), and low QC (LQC), based on linear ranges of the analytes.
2.1. Sample preparation for pharmacokinetic study
The calibration standard and quality control solutions for pharmacokinetic study were […]

[1] = male, Sprague-Dawley, rat, in vivo, po, 3.54 g/kg
[2] = male, Sprague-Dawley, rat, in vivo, po, 16.5 g/kg
[3] = male, Sprague-Dawley, rat, in vivo, po, 18.9 g/kg
[4] = male, Sprague-Dawley, rat, plasma, po, 9.45 g/kg, GG (Ge-Gen) group: rats, oral extract 9.45 g/kg, plasma, read-out: AUClast
[5] = male, Sprague-Dawley, rat, plasma, po, 16.5 g/kg, GQD-GC group (GQD without Gan-Cao): rats, oral 16.5 g/kg, plasma, read-out: AUClast
[6] = male, Sprague-Dawley, rat, plasma, po, 18.9 g/kg, GQD group: rats, oral GQD extract 18.9 g/kg, plasma, read-out: AUClast
[7] = male, Sprague-Dawley, rat, GG (Ge-Gen) group: rats, oral extract 9.45 g/kg, plasma, read-out: Cmax
[8] = male, Sprague-Dawley, rat, GG (Ge-Gen) group: rats, oral extract 9.45 g/kg, plasma, read-out: T1/2 (converted)
[9] = male, Sprague-Dawley, rat, GG (Ge-Gen) group: rats, oral extract 9.45 g/kg, plasma, read-out: Tmax
[10] = male, Sprague-Dawley, rat, GQD group: rats, oral GQD extract 18.9 g/kg, plasma, read-out: Cmax
[11] = male, Sprague-Dawley, rat, GQD group: rats, oral GQD extract 18.9 g/kg, plasma, read-out: T1/2 (converted)
[12] = male, Sprague-Dawley, rat, GQD group: rats, oral GQD extract 18.9 g/kg, plasma, read-out: Tmax
[13] = male, Sprague-Dawley, rat, GQD-GC group (GQD without Gan-Cao): rats, oral 16.5 g/kg, plasma, read-out: Cmax
[14] = male, Sprague-Dawley, rat, GQD-GC group (GQD without Gan-Cao): rats, oral 16.5 g/kg, plasma, read-out: T1/2 (converted)
[15] = male, Sprague-Dawley, rat, GQD-GC group (GQD without Gan-Cao): rats, oral 16.5 g/kg, plasma, read-out: Tmax

increase of AUClast in GQD group compared with the Huang-Lian group (male, Sprague-Dawley, rat, in vivo, po): 32.7%
Cmax [1]: 5.96 ± 1.35 ng/mL
Tmax [1]: 15 ± 75 min
half-life [1]: 195 ± 146 min
AUC(0-t) (male, Sprague-Dawley, rat, in vivo, po, 3.54 g/kg, AUClast): 51.5 ± 27.8 ng·h/mL
Cmax [2]: 4.75 ± 10.2 ng/mL
Tmax [2]: 15.6 ± 9 min
half-life [2]: 182 ± 142 min
AUC(0-t) (male, Sprague-Dawley, rat, in vivo, po, 16.5 g/kg, AUClast): 43.4 ± 17 ng·h/mL
Cmax [3]: 17.1 ± 2.98 ng/mL
Tmax [3]: 10.2 ± 1.8 min
half-life [3]: 97.2 ± 109 min
AUC(0-t) (male, Sprague-Dawley, rat, in vivo, po, 18.9 g/kg, AUClast): 68.3 ± 39.2 ng·h/mL
SMILES: COc1cc2c(cc1OC)-c1cc3ccc(OC)c(OC)c3c[n+]1CC2 [Compound 25, palmatine]

AUC(0-t) [4]: 67.3 ± 28.7 ng·h/mL
AUC(0-t) [5]: 18.9 ± 4.09 ng·h/mL
AUC(0-t) [6]: 37.5 ± 21.1 ng·h/mL
Cmax [7]: 14.9 ± 9.76 ng/mL
half-life [8]: 559 ± 131 min
Tmax [9]: 31.2 ± 66.6 min
Cmax [10]: 10.9 ± 9.4 ng/mL
half-life [11]: 479 ± 173 min
Tmax [12]: 31.2 ± 15.6 min
Cmax [13]: 11.1 ± 4.41 ng/mL
half-life [14]: 387 ± 310 min
Tmax [15]: 31.8 ± 72 min
SMILES: COc1ccc(C2=CC(=O)OC2Cc2ccc(O)cc2)c(OC2OC(CO)C(O)C(O)C2O)c1 [Compound 41, (4S)-puerol B 2″-O-glucopyranoside]

SMILES: O=c1c(-c2ccc(O)cc2)coc2cc(O[C@@H]3O[C@H](CO)[C@@H](O)[C@H](O)[C@H]3O)ccc12 [Compound 1, Daidzin]
AUC(0-t) (male, Sprague-Dawley, rat, in vivo, po, 9.45 g/kg, GG (Ge-Gen) group: rats, oral extract 9.45 g/kg, plasma, read-out: AUClast): 290 ± 42.2 ng·h/mL
AUC(0-t) (male, Sprague-Dawley, rat, in vivo, po, 9.45 g/kg, Ge-Gen group: rats, oral 9.45 g/kg, plasma, read-out: AUClast): 290 ± 42.2 ng·h/mL
AUC(0-t) (male, Sprague-Dawley, rat, in vivo, po, 16.5 g/kg, GQD-GC group (GQD without Gan-Cao): rats, oral 16.5 g/kg, plasma, read-out: AUClast): 282 ± 61.6 ng·h/mL
AUC(0-t) (male, Sprague-Dawley, rat, in vivo, po, 18.9 g/kg, GQD group: rats, oral GQD extract 18.9 g/kg, plasma, read-out: AUClast): 346 ± 30.3 ng·h/mL
AUC(0-t) (male, Sprague-Dawley, rat, in vivo, po, 18.9 g/kg, GQD group: rats, oral GQD 18.9 g/kg (1.5-fold of clinical dosage), plasma, read-out: AUClast): > 300 ng·h/mL
Cmax (male, Sprague-Dawley, rat, in vivo, GG (Ge-Gen) group: rats, oral extract 9.45 g/kg, plasma, read-out: Cmax): 58 ± 0.77 ng/mL
half-life (male, Sprague-Dawley, rat, in vivo, GG (Ge-Gen) group: rats, oral extract 9.45 g/kg, plasma, read-out: T1/2 (converted)): 44.4 ± 19.8 min
Tmax (male, Sprague-Dawley, rat, in vivo, GG (Ge-Gen) group: rats, oral extract 9.45 g/kg, plasma, read-out: Tmax): 22.8 ± 2.4 min
Cmax (male, Sprague-Dawley, rat, in vivo, GQD group: rats, oral GQD extract 18.9 g/kg, plasma, read-out: Cmax): 27.4 ± 3.34 ng/mL
half-life (male, Sprague-Dawley, rat, in vivo, GQD group: rats, oral GQD extract 18.9 g/kg, plasma, read-out: T1/2 (converted)): 238 ± 61.2 min
Tmax (male, Sprague-Dawley, rat, in vivo, GQD group: rats, oral GQD extract 18.9 g/kg, plasma, read-out: Tmax): 52.8 ± 6.6 min
Cmax (male, Sprague-Dawley, rat, in vivo, GQD-GC group (GQD without Gan-Cao): rats, oral 16.5 g/kg, plasma, read-out: Cmax): 52.4 ± 2.21 ng/mL
half-life (male, Sprague-Dawley, rat, in vivo, GQD-GC group (GQD without Gan-Cao): rats, oral 16.5 g/kg, plasma, read-out: T1/2 (converted)): 97.8 ± 8.4 min
Tmax (male, Sprague-Dawley, rat, in vivo, GQD-GC group (GQD without Gan-Cao): rats, oral 16.5 g/kg, plasma, read-out: Tmax): 34.8 ± 14.4 min
bioavailability in the GQD group compared with the Ge-Gen group: higher

AUC(0-t) [4]: 85 ± 19.2 ng·h/mL
AUC(0-t) [5]: 26 ± 7.29 ng·h/mL
AUC(0-t) [6]: 168 ± 83.3 ng·h/mL
Cmax [7]: 18.4 ± 5.1 ng/mL
half-life [8]: 539 ± 140 min
Tmax [9]: 23.4 ± 10.2 min
Cmax [10]: 16 ± 5.44 ng/mL
half-life [11]: 422 ± 139 min
Tmax [12]: 45.6 ± 226 min
Cmax [13]: 6.87 ± 2.05 ng/mL
half-life [14]: 314 ± 81 min
Tmax [15]: 31.2 ± 39 min
bioavailability in the GQD group compared with the Ge-Gen group: higher
SMILES: COc1ccc(-c2coc3c(C4OC(COC5OCC(O)(CO)C5O)C(O)C(O)C4O)c(O)ccc3c2=O)cc1 (centres unmarked) [Compound 5, formononetin 8-C-apiofuranosyl(1,6)glucoside]
